Among the data in ChEMBL document CHEMBL1150149, “Bacopaside III, bacopasaponin G, and bacopasides A, B, and C from Bacopa monniera” (2002) are Activity values, retold here.

This assay concerns Rattus norvegicus. Kind of assay: Antihyperglycemic activity against streptozotocin-induced diabetic rat assessed as change in plasma glucose at 1 mM/kg, iv. It is filed as functional.

With `O=C(O)[C@H]1O[C@@H](Oc2cc(O)c3c(=O)cc(-c4ccc(O)c(O)c4)oc3c2)[C@H](O)[C@@H](O)[C@@H]1O`, the Activity is on record as -25.54%.
